According to ChEMBL document CHEMBL1157806, “1-(3-Deoxy-3-fluoro-beta-d-glucopyranosyl) pyrimidine derivatives as inhibitors of glycogen phosphorylase b: Kinetic, crystallographic and modelling studies” (Bioorg Med Chem, 2010):

Tests used:
[1] = Dissociation constant, pKa of the compound; type: physicochemical
[2] = molecular target: T1, Glycogen phosphorylase, muscle form (Oryctolagus cuniculus, UniProt P00489); assay: Inhibition of rabbit muscle glycogen phosphorylase inactive form b
T1 sequence (P00489 whole entry): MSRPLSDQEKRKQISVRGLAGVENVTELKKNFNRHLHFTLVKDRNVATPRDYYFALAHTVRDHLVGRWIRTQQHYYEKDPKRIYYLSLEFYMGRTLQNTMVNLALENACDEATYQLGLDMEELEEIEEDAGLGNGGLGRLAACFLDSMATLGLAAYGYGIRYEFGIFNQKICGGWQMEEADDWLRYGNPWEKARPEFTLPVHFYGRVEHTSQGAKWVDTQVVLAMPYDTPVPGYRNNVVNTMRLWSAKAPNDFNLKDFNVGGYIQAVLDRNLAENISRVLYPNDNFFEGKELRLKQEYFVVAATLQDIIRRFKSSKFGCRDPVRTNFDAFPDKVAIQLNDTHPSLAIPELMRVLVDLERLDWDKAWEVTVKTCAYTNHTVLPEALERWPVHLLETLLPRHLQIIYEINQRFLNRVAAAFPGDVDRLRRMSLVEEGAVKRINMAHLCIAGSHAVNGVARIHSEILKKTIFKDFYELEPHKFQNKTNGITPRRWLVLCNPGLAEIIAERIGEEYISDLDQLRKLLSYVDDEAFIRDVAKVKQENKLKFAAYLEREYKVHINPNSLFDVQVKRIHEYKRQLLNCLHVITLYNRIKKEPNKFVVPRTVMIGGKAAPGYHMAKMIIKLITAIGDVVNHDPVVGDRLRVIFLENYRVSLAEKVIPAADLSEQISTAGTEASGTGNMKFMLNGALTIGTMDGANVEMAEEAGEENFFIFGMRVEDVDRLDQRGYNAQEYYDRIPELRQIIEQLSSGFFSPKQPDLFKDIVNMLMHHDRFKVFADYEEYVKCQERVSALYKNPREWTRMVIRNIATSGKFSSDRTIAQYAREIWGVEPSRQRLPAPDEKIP

Structure (SMILES): O=c1[nH]c(=O)n([C@@H]2O[C@H](CO)C(O)[C@H](F)C2O)cc1F (stereo partly drawn)
- pKa [1]: 7.5

Structure (SMILES): O=c1ccn([C@@H]2O[C@H](CO)[C@@H](O)[C@H](O)[C@H]2O)c(=O)[nH]1
- Ki [2]: 6.1 µM

Structure (SMILES): Nc1ccn([C@@H]2O[C@H](CO)[C@@H](O)[C@H](O)[C@H]2O)c(=O)n1
- Ki [2]: 7.7 µM
